The test system of assay [1] is A549. As to the kind of experiment: Cytotoxicity against human A549 cells after 48 hrs by MTT assay. The format is functional, cell-based. A general note: Tetrazolium dyes change colour on reduction, which living cells bring about.
The test system of assay [2] is MCF7. As to the kind of experiment: Cytotoxicity against human MCF7 cells after 48 hrs by MTT assay. The format is functional, cell-based.
The test system of assay [3] is DLA. As to the kind of experiment: (§1) Cytotoxicity against mouse DLA cells after 48 hrs by MTT assay. The format is functional, cell-based.
For assay [4], the system named is A549. As to the kind of experiment: Cytotoxicity against human A549 cells after 48 hrs by LDH leak assay. The format is functional, cell-based.
Assay [5] concerns MCF7. As to the kind of experiment: Cytotoxicity against human MCF7 cells after 48 hrs by LDH leak assay. The format is functional, cell-based.
The test system of assay [6] is DLA. Briefly: (§2) Cytotoxicity against mouse DLA cells after 48 hrs by LDH leak assay. The format is functional, cell-based.
For assay [7], the system named is A549. As to the kind of experiment: Cytotoxicity against human A549 cells after 48 hrs by trypan blue assay. In kind it is functional, cell-based.
Assay [8] has as its system MCF7. Briefly: Cytotoxicity against human MCF7 cells after 48 hrs by trypan blue assay. The format is functional, cell-based.
Assay [9] has as its system DLA. As to the kind of experiment: (§3) Cytotoxicity against mouse DLA cells after 48 hrs by trypan blue assay. In kind it is functional, cell-based.
Assay [10] is described as follows: as §1. In kind it is functional, cell-based.
Assay [11] in a line: as §2. The format is functional, cell-based.
A short description of assay [12]: as §3. In kind it is functional, cell-based.
A short description of assay [13]: Antitumor activity against mouse DLA cells allografted in Swiss albino mouse assessed as inhibition of tumor growth at 75 mg/kg, ip administered as 3 doses on alternative days post 4 days of tumor implantation measured after final dose of drug challenge. The format is functional. The conditions noted are these: 96 h.
Assay [14] deals with Mus musculus. As to the kind of experiment: Decrease in ascites fluid secretion in Swiss albino mouse allografted with mouse DLA cells at 75 mg/kg, ip administered as 3 doses on alternative days post 4 days of tumor implantation. In kind it is functional, organism-based.
Assay [15] has as its system Mus musculus. As to the kind of experiment: Decrease in cell count Swiss albino mouse allografted with mouse DLA cells at 75 mg/kg, ip administered as 3 doses on alternative days post 4 days of tumor implantation. In kind it is functional, organism-based.
The nature of assay [16]: Antitumor activity against mouse DLA cells allografted in Swiss albino mouse assessed as induction of tumor regression at 75 mg/kg, ip administered as 3 doses on alternative days post 4 days of tumor implantation. The format is functional.
A short description of assay [17]: Antitumor activity against mouse DLA cells allografted in Swiss mouse assessed as increase in animal survival time at 75 mg/kg, ip administered as 3 doses on alternative days post 4 days of tumor implantation. In kind it is functional.
Assay [18] is filed under the species Mus musculus. Briefly: Antiangiogenic activity against Swiss albino mouse allografted with mouse DLA cells assessed as decrease in peritoneal angiogenesis measured as […]. In kind it is functional.
The next assay relates to Chorioallantoic membrane. As to the kind of experiment: Antiangiogenic activity in chicken chorioallantoic membrane assessed as inhibition of rVEGF-induced neovascularization measured upto 12 days. In kind it is functional. The conditions noted are these: Gallus gallus.

13 compounds from ChEMBL document CHEMBL3792276, “Design and synthesis of diamide-coupled benzophenones as potential anticancer agents” (Eur J Med Chem, 2016) can be followed below.

Structures are written as SMILES. Active and inactive are the calls of the source. No cut-off for these calls is given here.

`Cc1cc(C(=O)c2ccccc2)ccc1OCC(=O)Nc1ccccc1NC(=O)COc1ccc(C(=O)c2ccc(Br)cc2)cc1C`: the result in the assay with A549 [1], in the assay on MCF7 [2], in the assay with DLA [3], in the assay on A549 [4], with MCF7 [5] and in the assay on DLA [6] was inactive. For the same compound, the result in the assay on A549 [7], in the assay on MCF7 [8] and in the assay with DLA [9] was inactive.

With `Cc1cc(C(=O)c2ccc(Br)cc2)ccc1OCC(=O)Nc1ccccc1NC(=O)COc1c(F)cc(C(=O)c2ccc(Cl)cc2)cc1Cl`, the result in the assay with A549 [1], in the assay on MCF7 [2], with DLA [3], in the assay on A549 [4], in the assay with MCF7 [5] and in the assay with DLA [6] was inactive. Further, the outcome in the assay with A549 [7], in the assay with MCF7 [8] and in the assay on DLA [9] was inactive.

`O=c1[nH]cc(F)c(=O)[nH]1`: the outcome in the assay with A549 [1], in the assay on MCF7 [2], in the assay on DLA [3], in the assay on A549 [4], in the assay on MCF7 [5] and in the assay on DLA [6] was inactive. Besides, the outcome with A549 [7], with MCF7 [8] and with DLA [9] was inactive.

As for `Cc1cc(C(=O)c2ccc(Br)cc2)ccc1OCC(=O)Nc1ccccc1NC(=O)COc1ccc(C(=O)c2ccc(Br)cc2)cc1C`, the result in the assay with A549 [1], in the assay on MCF7 [2], in the assay with DLA [3], in the assay on A549 [4], in the assay with MCF7 [5] and in the assay on DLA [6] was inactive. The outcome in the assay with A549 [7], in the assay on MCF7 [8] and with DLA [9] was inactive.

With `Cc1ccc(C(=O)c2ccc(OCC(=O)Nc3ccccc3NC(=O)COc3ccc(C(=O)c4ccccc4)cc3C)c(C)c2)cc1`, the result in the assay with A549 [1], in the assay with MCF7 [2], with DLA [3], in the assay with A549 [4], in the assay on MCF7 [5] and in the assay with DLA [6] was inactive. Besides, the outcome in the assay with A549 [7], with MCF7 [8] and in the assay with DLA [9] was inactive.

On to `Cc1cc(C(=O)c2ccc(Br)cc2)ccc1OCC(=O)Nc1ccccc1NC(=O)COc1cc(C)c(C(=O)c2ccccc2)cc1C`, for which the result in the assay on A549 [1], in the assay on MCF7 [2], with DLA [3], in the assay on A549 [4], with MCF7 [5] and in the assay on DLA [6] was inactive. Besides, the outcome in the assay on A549 [7], with MCF7 [8] and in the assay on DLA [9] was inactive.

On to `Cc1ccc(C(=O)c2ccc(OCC(=O)Nc3ccccc3NC(=O)COc3ccc(C(=O)c4ccc(Br)cc4)cc3C)c(C)c2)cc1`, for which the outcome with A549 [1], in the assay on MCF7 [2], in the assay on DLA [3], with A549 [4], with MCF7 [5] and with DLA [6] was inactive. For the same compound, the result with A549 [7], in the assay on MCF7 [8] and in the assay with DLA [9] was inactive.

With `Cc1cc(C(=O)c2ccccc2)ccc1OCC(=O)Nc1ccccc1NC(=O)COc1c(F)cc(C(=O)c2ccc(Cl)cc2)cc1Cl`, the result with A549 [1], with MCF7 [2], with DLA [3], with A549 [4], in the assay with MCF7 [5] and with DLA [6] was inactive. Moreover, the outcome with A549 [7], in the assay with MCF7 [8] and with DLA [9] was inactive.

As for `Cc1cc(C(=O)c2ccccc2)ccc1OCC(=O)Nc1ccccc1NC(=O)COc1ccc(C(=O)c2ccccc2)cc1C`, the outcome in the assay with A549 [1], in the assay with MCF7 [2], with DLA [3], in the assay with A549 [4], in the assay on MCF7 [5] and with DLA [6] was inactive. The outcome in the assay on A549 [7], in the assay with MCF7 [8] and in the assay on DLA [9] was inactive.

Take `Cc1cc(C(=O)c2ccccc2)ccc1OCC(=O)Nc1ccccc1NC(=O)COc1ccc(C(=O)c2ccccc2C)cc1C`: the outcome in the assay with A549 [1], with MCF7 [2], in the assay on DLA [3], in the assay with A549 [4], in the assay on MCF7 [5] and in the assay on DLA [6] was inactive. The result with A549 [7], in the assay with MCF7 [8] and in the assay with DLA [9] was inactive.

Take `Cc1cc(C(=O)c2ccccc2)ccc1OCC(=O)Nc1ccccc1NC(=O)COc1cc(C)c(C(=O)c2ccccc2)cc1C`: the result in the assay with A549 [1], in the assay with MCF7 [2], with DLA [3], in the assay with A549 [4], in the assay on MCF7 [5] and in the assay with DLA [6] was inactive. Besides, the result in the assay on A549 [7], in the assay with MCF7 [8] and with DLA [9] was inactive.

In the case of `Cc1cc(C(=O)c2ccc(Br)cc2)ccc1OCC(=O)Nc1ccccc1NC(=O)COc1ccc(C(=O)c2ccccc2C)cc1C`, the IC50 was determined as 20 µM in the assay on A549 [1] (A549, 48 h); 23 µM in the assay on MCF7 [2] (MCF7, 48 h); 23 µM in [10]; 20 µM with A549 [4] (A549, 48 h); 23 µM in the assay on MCF7 [5] (MCF7, 48 h); 23 µM in [11]. The IC50 in the assay with A549 [7] (A549, 48 h) was found to be 20 µM; with MCF7 [8] (MCF7, 48 h), 23 µM; in [12], 23 µM. Also, the inhibition in vivo at 75 mg/kg in assay [13] worked out at 80%. The inhibition entry with Mus musculus [14], in the assay on Mus musculus [15] and with Chorioallantoic membrane was “Active” in each case. Further, the “fold change (FC)” value in [16] worked out at 2.5. Also, the MST in [17] stood at 37 days. Also, in the assay listed under Mus musculus [18], the “inhibition (INH)” value is greater than 50%.

As for `Cc1cc(C(=O)c2ccccc2)c(C)cc1OCC(=O)Nc1ccccc1NC(=O)COc1cc(C)c(C(=O)c2ccccc2)cc1C`, the result in the assay on A549 [1], in the assay with MCF7 [2], with DLA [3], in the assay with A549 [4], with MCF7 [5] and with DLA [6] was inactive. Moreover, the outcome in the assay on A549 [7], in the assay on MCF7 [8] and in the assay with DLA [9] was inactive.

As a reminder, the IC50 is the midpoint of a concentration-inhibition curve. A low value points to higher potency. By inhibition in vivo is commonly meant the share of the control response that was lost under treatment.
